Measurements as given in publication PMC9232612, “A phase 1b randomised controlled trial of a glucagon-like peptide-1 and glucagon receptor dual agonist IBI362 (LY3305677) in Chinese patients with type 2 diabetes” (Nature Communications, 2022).
Several values for one entry are separate records, joined by “and”; a condition that tells them apart may be missing. Identical values can stand only once.

Tests used:
Assay type in all cases: in vivo, human
[1] = test system: Chinese patients with T2D; assay: Mixed-meal tolerance test (MTT): insulin; details: 1.5 mg once weekly, n=6
Description: (§1) HbA1c (2200101, Bio-Rad, USA), blood glucose (05168791190, Roche Diagnostics, Germany), insulin (12017547122, Roche Diagnostics, Germany), C peptide (03184897190, Roche Diagnostics, Germany), total GLP-1 (GLP-1 [7–36] amide and its metabolite, GLP-1 [9–36] amide, 10-1278-01, Mercodia AB, Sweden) and OXM (AL-139, AnshLabs, USA) tests were performed according to the manufactures’ instruction manuals in a central laboratory (KingMed Diagnostics, Guangzhou, China). HbA1c was measured using a Bio-rad D-100 Haemoglobin Testing System (Bio-rad). Blood glucose was measured using a Roche Cobas c702 analyser (Roche Diagnostics). Insulin and C peptide were measured using a Roche […] analyser (Roche Diagnostics). GLP-1 and OXM were measured using a Tecan Infinite M Plex microplate reader (TECAN).
Standard non-compartmental pharmacokinetics methods were used to analyze IBI362 plasma concentration data using Pkanalix 2020R1 (Lixoft, Antony, France). Secondary efficacy outcomes included change from baseline to week 12 in HbA1c, fasting plasma glucose (FPG), fasting insulin levels, change from baseline to week 12 in post-mixed-meal tolerance test (post-MTT) glucose, insulin, C peptide, GLP-1 and OXM levels, as well as seven-point self-measured blood glucose (SMBG) profile. […]
3. Standard meal test (MTT) collection measures included: insulin, C-peptide, plasma glucose, glucagon, endogenous OXM, and endogenous GLP-1. The sampling points include: fasting, 30 min, 1h, 2h, 3h and 4h.
A total of 9 mL blood will be collected from each blood collection point. See the manual of the central laboratory for the detailed operation process. Fasting state refers to fasting for 10 hours. [ The standard meal is
instant noodles. The master Kang roast beef noodles (bucket noodles) purchased by the sponsor in a unified manner are removed from the oil bag. The noodles are soaked in boiled water and then removed. The seasoning
bag is added and mixed well. The time is counted from the first bite of eating. The noodles are eaten within 10 minutes, and 200 mL of water is drunk; or the instant noodles are directly opened with 200 mL of boiled
water to ensure that the noodles are eaten and the water or soup is drunk]. Visit days when MTT test is performed: 1 day prior to Cycle 1 administration, Day 80 (D80). […]
● Test by central laboratory

[2] = test system: Chinese patients with T2D; assay: Glycated haemoglobin A1c (HbA1c); details: 1.5 mg once weekly; for HbA1c at week 12, single patients: each line a single patient
Description: as §1
(§2) Standard non-compartmental pharmacokinetics methods were used to analyze IBI362 plasma concentration data using Pkanalix 2020R1 (Lixoft, Antony, France). Secondary efficacy outcomes included change from baseline to week 12 in HbA1c, fasting plasma glucose (FPG), fasting insulin levels, change from baseline to week 12 in post-mixed-meal tolerance test (post-MTT) glucose, insulin, C peptide, GLP-1 and OXM levels, as well as seven-point self-measured blood glucose (SMBG) profile.
(§3) The analyses for change from baseline in HbA1c, FPG, post-MTT glucose AUC0–4 h and body weight were performed using the mixed-effect model for repeated measures (MMRM) with least-squares means and standard error provided. The MMRM included the corresponding baseline value, treatment, visit and treatment-by-visit as fixed effects and patient as a random effect. Mean change or mean percent change from baseline were analysed using a restricted maximum likelihood (REML)‐based repeated measures approach in combination with the Newton Raphson Algorithm. The fix effect of visit was fitted as a repeated effect and an unstructured covariance matrix was used. In case of non-converge, matrix like Variance Components and Compound Symmetry will be tested in a subsequent order until model‐convergence is achieved. The Kenward-Roger degree of freedom was used in estimating fixed effects. No missing data imputation was conducted. For HbA1c, FPG and body weight, point estimate of treatment difference versus placebo and 90% CI were provided for each IBI362 dose group and the dulaglutide group, with nominal p values.

[3] = test system: Chinese patients with T2D; assay: Fasting plasma glucose (FPG); details: 1.5 mg once weekly, MMRM
Description: as §1, §2, §3

[4] = test system: Chinese patients with T2D; assay: Lipids (total cholesterol, LDL cholesterol, triglycerides); details: Dulaglutide group; mean
Description: Fig. S8: Change from baseline in lipids levels at week 12.
Data are plotted as means +/- SD. IBI362 3.0 mg n = 7; IBI362 4.5 mg n = 5; IBI362 6.0 mg n = 8; Pooled placebo n = 10; Dulaglutide n = 6. CFB = change from baseline; LDL = low density lipoprotein; SD = standard deviation. Source data are provided as a Source Data file.
Total cholesterol LDL cholesterol Triglycerides
CFB in lipids at week 12 (mmol/L),
(1 picture or pasted object on this page, not shown here) […]
Table 4 Routine laboratory safety assessments […]
Lipids Total cholesterol (TC), triglyceride (TG), high-density lipoprotein cholesterol (HDL-C), and low-density lipoprotein cholesterol (LDL-C). […]

Substance: Dulaglutide: open-label active reference, subcutaneously once weekly at a fixed dose of 1.5 mg [reference compound]
- Insulin during MTT, mean ([1]; week 12, 0 min): 13.40 μU/mL
- Insulin during MTT, mean ([1]; week 12, 30 min): 30.21 μU/mL
- Insulin during MTT, mean ([1]; week 12, 60 min): 53.77 μU/mL
- Insulin during MTT, mean ([1]; week 12, 120 min): 63.25 μU/mL
- Insulin during MTT, mean ([1]; week 12, 180 min): 30.85 μU/mL
- Insulin during MTT, mean ([1]; week 12, 240 min): 21.56 μU/mL
- Percent of patients with change from baseline to week 12 in HbA1c <1.0% ([2]; n=6): 16.7%
- Percent of patients with change from baseline to week 12 in HbA1c ≥1.0% and <1.5% ([2]; n=6): 50.0%
- Percent of patients with change from baseline to week 12 in HbA1c ≥1.5% and <2.0% ([2]; n=6): 0.0%
- Percent of patients with change from baseline to week 12 in HbA1c ≥2.0% ([2]; n=6): 33.3%
- HbA1c at week 12, single patients [2]: 6.4% and 6.6% and 6.5% and 7.2% and 6.0%
- HbA1c at week 12, single patients ([2]; listed as dulaglutide): 5.5%
- Change from baseline in HbA1c, LS mean ([2]; week 4, n=6, MMRM): -1.03%
- Change from baseline in HbA1c, LS mean ([2]; week 8, n=6, MMRM): -1.72%
- patients achieving ≥1.5% reductions in HbA1c from baseline ([2]; week 12, n=6): 33.3%
- Change from baseline in HbA1c, LS mean (SE) ([2]; week 12, n=6, MMRM): -1.98%
- HbA1c: ETD versus placebo, LS mean (90% CI) ([2]; week 12, MMRM): −1.11%
- Change from baseline in fasting plasma glucose, LS mean ([3]; week 4, n=6): -3.19 mmol/L
- Change from baseline in fasting plasma glucose, LS mean ([3]; week 8, n=6): -3.36 mmol/L
- Change from baseline in fasting plasma glucose, LS mean (SE) ([3]; week 12, n=6): -3.85 mmol/L
- Fasting plasma glucose: ETD versus placebo, LS mean (90% CI) ([3]; week 12): -1.32 mmol/L
- Change from baseline to week 12 in LDL cholesterol [4]: -0.32 mmol/L
- Change from baseline to week 12 in total cholesterol [4]: -0.58 mmol/L
- Change from baseline to week 12 in triglycerides [4]: -0.58 mmol/L
